Results: ChEMBL document CHEMBL3727362, “Tetrahydronaphthyridine and tetrahydropyrido[4,3-D]pyrimidine compounds and compositions thereof useful for the treatment of inflammatory and respiratory diseases” (2014)

Target: T1, P2X2/P2X3 heterotrimeric receptor (Homo sapiens) (UniProt Q9UBL9+P56373)
Assay: Antagonist activity against human P2X2/3 receptor expressed in HEK293/1321N1 cells assessed as inhibition of alpha,beta-meATP/ATP-induced calcium influx at 3 uM by Fluo-4 dye based FLIPR assay
Type: functional, cell-based

Compound	inhibition [%]
Cc1ccc(N2CCc3ncnc(NCCc4ccccc4)c3C2)nc1	> 75
Cc1ccc(CN(C)c2ncnc3c2CN(c2ccc(C)cn2)CC3)cc1	25
COc1ccc(CN(C)c2ncnc3c2CN(c2ccc(C)cn2)CC3)cc1OC	25
Cc1ccc(N2CCc3ncnc(NCc4cccc(F)c4F)c3C2)nc1	> 75
Cc1ccc(N2CCc3ncnc(NCc4ccc(C(F)(F)F)cc4F)c3C2)nc1	> 75
COc1ccc(CN(C)c2ncnc3c2CN(c2ccc(C)cn2)CC3)cc1	0
Cc1ccc(N2CCc3ncnc(NCc4ccccc4OC(F)(F)F)c3C2)nc1	> 75
CCc1ccc(CN(C)c2ncnc3c2CN(c2ccc(C)cn2)CC3)cc1	0
Cc1ccc(N2CCc3ncnc(N(C)Cc4cccc(Cl)c4)c3C2)nc1	0
Cc1ccc(N2CCc3ncnc(NCc4ccc(OC(F)(F)F)cc4)c3C2)nc1	50
COc1ccccc1CN(C)c1ncnc2c1CN(c1ccc(C)cn1)CC2	0
Clc1cccnc1N1CCc2ncnc(Nc3ccccc3)c2C1	0
COc1ccc(CCNc2ncnc3c2CN(c2ccc(C)cn2)CC3)cc1OC	50
Cc1ccc(N2CCc3ncnc(NCCc4cccc(C(F)(F)F)c4)c3C2)nc1	> 75
Cc1ccc(N2CCc3ncnc(N(C)Cc4ccc(Cl)cc4)c3C2)nc1	0
COc1cc(CCNc2ncnc3c2CN(c2ccc(C)cn2)CC3)cc(OC)c1	50

Compound	inhibition [%]
Cc1ccc(N2CCc3ncnc(NC(C)c4ccc(F)cc4)c3C2)nc1 (centres undefined)	> 75
Cc1ccc(N2CCc3ncnc(NCc4ccccc4C(F)(F)F)c3C2)nc1	50
Cc1ccc(N2CCc3ncnc(NCc4ccccc4OC(F)F)c3C2)nc1	> 75
Cc1ccc(N2CCc3ncnc(N(C)Cc4ccc(F)cc4)c3C2)nc1	0
COc1cccc(CCNc2ncnc3c2CN(c2ccc(C)cn2)CC3)c1	> 75
Cc1ccc(N2CCc3ncnc(NCc4ccc(C(F)(F)F)cc4)c3C2)nc1	> 75
Cc1ccc(N2CCc3ncnc(NCc4ccc(C(C)(C)C)cc4)c3C2)nc1	0
COc1cccc(CN(C)c2ncnc3c2CN(c2ccc(C)cn2)CC3)c1	0
Cc1ccc(CCNc2ncnc3c2CN(c2ccc(C)cn2)CC3)cc1	> 75
COc1ccc(CCNc2ncnc3c2CN(c2ccc(C)cn2)CC3)cc1	> 75
CN1CC(C)(C)c2ccc(Nc3ncnc4c3CN(c3ncccc3Cl)CC4)cc21	0
Cc1ccc(N2CCc3ncnc(NCc4cc(C(F)(F)F)ccc4F)c3C2)nc1	0
Cc1ccc(N2CCc3ncnc(NCCc4ccccc4Cl)c3C2)nc1	> 75
Cc1ccc(N2CCc3ncnc(N(C)Cc4ccc(C(F)(F)F)cc4)c3C2)nc1	0
O=S(=O)(c1ccc(Nc2ncnc3c2CN(c2ncccc2Cl)CC3)cc1)C(F)(F)F	0
Cc1ccc(N2CCc3ncnc(N(C)Cc4ccccc4)c3C2)nc1	0

Results, then the compound that gave them:

inhibition [%]	Compound
> 75	Cc1ccc(N2CCc3ncnc(NCc4cccc(F)c4)c3C2)nc1
50	Cc1ccc(N2CCc3ncnc(NCc4ccc(Cl)cc4F)c3C2)nc1
50	Cc1ccc(N2CCc3ncnc(NCc4cccc(C(F)(F)F)c4)c3C2)nc1
0	Cc1ccc(N2CCc3ncnc(NCc4ccc(Cl)c(Cl)c4)c3C2)nc1
50	Cc1ccc(N2CCc3ncnc(NCc4cc(F)ccc4F)c3C2)nc1
> 75	Cc1ccc(N2CCc3ncnc(NCc4ccc(F)c(C)c4)c3C2)nc1
> 75	Cc1ccc(N2CCc3ncnc(NCc4cccc(Cl)c4)c3C2)nc1
> 75	COc1cccc(CNc2ncnc3c2CN(c2ccc(C)cn2)CC3)c1
> 75	Cc1ccc(N2CCc3ncnc(NCc4ccc5c(c4)OCO5)c3C2)nc1
0	Cc1ccc(N2CCc3ncnc(NCc4ccc(Cl)cc4Cl)c3C2)nc1
> 75	Cc1ccc(N2CCc3ncnc(NCc4ccc(Cl)cc4)c3C2)nc1
> 75	Cc1ccc(N2CCc3ncnc(NCc4ccccc4Cl)c3C2)nc1
0	Cc1ccc(N2CCc3ncnc(NCc4cc(F)cc(C(F)(F)F)c4)c3C2)nc1
0	Cc1ccc(N2CCc3ncnc(NCc4cc(C(F)(F)F)cc(C(F)(F)F)c4)c3C2)nc1
0	COc1cc(CNc2ncnc3c2CN(c2ccc(C)cn2)CC3)cc(OC)c1
0	Cc1ccc(N2CCc3ncnc(NCc4cc(C(F)(F)F)ccc4Cl)c3C2)nc1
0	Cc1ccc(N2CCc3ncnc(NCc4ccc(C(C)C)cc4)c3C2)nc1
50	Cc1ccc(N2CCc3ncnc(NCCc4ccc(Cl)c(Cl)c4)c3C2)nc1
25	Cc1ccc(N2CCc3ncnc(NCc4ccc(C)cc4C)c3C2)nc1
> 75	COc1ccc(CNc2ncnc3c2CN(c2ccc(C)cn2)CC3)cc1
> 75	Cc1ccc(N2CCc3ncnc(NCCc4ccc(Cl)cc4)c3C2)nc1
50	Cc1ccc(N2CCc3ncnc(NCc4cc(Cl)ccc4F)c3C2)nc1
> 75	Cc1ccc(CNc2ncnc3c2CN(c2ccc(C)cn2)CC3)cc1
0	Cc1ccc(N2CCc3ncnc(NCc4cccc(C)c4C)c3C2)nc1
0	Cc1ccc(N2CCc3ncnc(NCc4cc(Cl)cc(Cl)c4)c3C2)nc1
0	Cc1ccc(N2CCc3ncnc(NCc4ccc(F)c(C(F)(F)F)c4)c3C2)nc1
> 75	Cc1ccc(N2CCc3ncnc(NCc4ccc(F)c(F)c4)c3C2)nc1

Target: T1, P2X2/P2X3 heterotrimeric receptor (Homo sapiens)
Assay: Antagonist activity against human P2X2/3 receptor expressed in HEK293/1321N1 cells assessed as inhibition of alpha,beta-meATP/ATP-induced calcium influx at 10 uM by Fluo-4 dye based FLIPR assay
Type: functional, cell-based

Compound	inhibition [%]
Cc1ccc(N2CCc3ncnc(Nc4ccc(C(F)(F)F)cc4)c3C2)cc1	0
FC(F)(F)c1ccc(Nc2ncnc3c2CN(c2ncccc2Cl)CC3)cn1	0
COc1ccc(CN(C)c2ncnc3c2CN(c2ccc(C)cn2)CC3)cc1OC	> 75
Cc1ccc(N2CCc3ncnc(NCc4ccccc4C)c3C2)nc1	> 75
Cc1ccc(N2CCc3ncnc(NCC4(O)CCCC(C)(C)C4)c3C2)nc1 (centres undefined)	0
Cc1ccccc1N1CCc2ncnc(Nc3ccc(C(F)(F)F)cc3)c2C1	0
Cc1ccc(N2CCc3ncnc(NCC4CCCCC4)c3C2)nc1	> 75
Cc1ccc(N2CCc3ncnc(NCCc4cccc(C(F)(F)F)c4)c3C2)nc1	> 75
Cc1ccc(N2CCc3ncnc(N(C)Cc4ccc(F)cc4)c3C2)nc1	50
COc1ccccc1CNc1ncnc2c1CN(c1ccc(C)cn1)CC2	> 75
CC1(C)CNc2cc(Nc3ncnc4c3CN(c3ncccc3Cl)CC4)ccc21	0
CC1(C)C(=O)Nc2cc(Nc3ncnc4c3CN(c3ncccc3Cl)CC4)ccc21	0
Cc1ccc(N2CCc3ncnc(NCCc4ccccc4Cl)c3C2)nc1	> 75

Further lines, results first:

inhibition [%]	Compound
> 75	COc1cccc(CNc2ncnc3c2CN(c2ccc(C)cn2)CC3)c1
0	Cc1ccc(N2CCc3ncnc(NCc4cc(C(F)(F)F)ccc4Cl)c3C2)nc1
